Experimental data as given in patent US8609719B2, “Propargylated aminoindans, processes for preparation, and uses thereof” (priority 2006, dated 2013).
Counter-ions that a name gives are not always drawn. Like-named read-outs stand apart in the source and are kept apart here.

What was measured:
MAO = MAO inhibition in rat organs after chronic administration, overall conclusion; type: in vivo; conditions: rats, P.O. daily for seven days
Description: (§1) 30 rats were separated randomly into 5 testing groups of 6 rats each. Group 1 was the control group to which no drug was administered. Ethyl-hydroxymethyl-carbamic acid 3-R-(prop-2-ynylamino)-indan-5-yl ester fumarate (2:1) was administered to groups 2, 3, 4 in dosages of 150, 75, and 37.5 μmol/kg respectively, daily, perorally (“P.O.”) for seven consecutive days. Water was used as a vehicle.
(§2) Rats were sacrificed, out of sight of the other rats, 2 hours after the last administration. Brains were removed into Petri dishes on ice, the cerebellums were […], and the brains cut into halves for analysis. Livers and intestines were removed for MAO determination. Organs were homogenated for enzyme inhibition analysis.
(§3) The MAO inhibition after administration of ethyl-hydroxymethyl-carbamic acid 3-R-(prop-2-ynylamino)-indan-5-yl ester fumarate (2:1) in various organs is listed in Table 4 calculated in percent relative to the control group.

MAO-A [1] = target: T1, MAO-A (Rattus norvegicus, UniProt P21396); assay: MAO-A inhibition in rat organs after chronic P.O. administration; type: in vivo; conditions: po, 7 days, 2 hours after last dose; for inhibition at 37.5 µmol/kg: 37.5 μmol/kg P.O. daily; for inhibition at 75 µmol/kg: 75 μmol/kg P.O. daily; for inhibition at 150 µmol/kg: 150 μmol/kg P.O. daily
T1 construct: from tissue; host or cells: brain, liver and intestine (duodenum) of dosed rats
T1 sequence (P21396 1-526): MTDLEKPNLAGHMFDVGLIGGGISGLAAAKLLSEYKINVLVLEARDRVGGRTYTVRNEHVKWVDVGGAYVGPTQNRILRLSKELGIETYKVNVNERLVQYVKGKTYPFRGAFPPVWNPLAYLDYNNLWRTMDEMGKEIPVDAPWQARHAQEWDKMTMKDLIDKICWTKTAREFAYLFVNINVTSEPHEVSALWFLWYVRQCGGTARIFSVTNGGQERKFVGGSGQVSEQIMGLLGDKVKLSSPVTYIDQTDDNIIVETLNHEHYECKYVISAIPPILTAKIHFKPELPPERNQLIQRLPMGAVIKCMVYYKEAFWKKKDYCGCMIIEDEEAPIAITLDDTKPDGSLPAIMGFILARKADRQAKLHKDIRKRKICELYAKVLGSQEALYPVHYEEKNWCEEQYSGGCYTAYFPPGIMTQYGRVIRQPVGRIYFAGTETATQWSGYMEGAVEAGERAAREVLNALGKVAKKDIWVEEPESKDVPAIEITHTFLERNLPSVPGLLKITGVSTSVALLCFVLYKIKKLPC
Description: as §1, §2, §3

[2] = Pharmacokinetic analysis of ladostigil and metabolites in Alzheimer's disease patients; conditions: human, in vivo, 100 mg; for Cmax / AUC / AUC(0-t): after ladostigil tartrate 100 mg twice daily; for concentration at 12 h: mean concentration at pre-dose, 12 hours after the previous dose of ladostigil tartrate; for AUC: AUC (M)
MAO-A [3] = target: T1, MAO-A; assay: Inhibition of MAO activity in vitro (5-HT substrate); type: biochemical; conditions: rat brain homogenate; 5-HT 100 uM; 60 minutes pre-incubation at 37° C.; read-out: IC50 for MAO-A inhibition
Description: The MAO enzyme source was a homogenate of rat brain in 0.3M sucrose. The homogenate was diluted appropriately, and pre-incubated with serial dilutions of test compounds—diluted in phosphate buffer containing clogyline when 2-phenylethylamine (PEA) is the substrate, and diluted in phosphate buffer containing selegiline when 5-hydroxytryptamine (5-HT) is the substrate—for 60 minutes at 37° C. 14C-Labeled substrates (PEA for MAO-B determination and 5-HT for MAO-A determination) were then added, and the incubation continued for a further 20 minutes (PEA) or 30 minutes (5-HT). Substrate concentrations used were 10 μM (PEA) and 100 uM (5-HT). Enzyme concentration was chosen so that not more than 10% of the substrate was metabolized during the course of the reaction. Deaminated products were extracted into toluene-ethyl acetate (1:1 v/v) containing 0.4% (w/v) 2,5-diphenyloxazole (ppo) prior to determination by liquid scintillation counting. Radioactivity in the eluate indicated the production of neutral and acidic metabolites formed as a result of MAO activity. Activity of MAO in the sample was expressed as a percentage of control activity in the absence of inhibitor after subtraction of appropriate blank values. The activity determined using PEA as substrate is referred to as MAO-B, and that determined using 5-HT as MAO-A.
Concentrations of each inhibitor producing 50% inhibition of substrate metabolism (IC50) were calculated from the inhibition curves, and are shown in Table 1.

[4] = read-out: Brain MAO-A inhibition relative to control
[5] = read-out: Duodenum MAO-A inhibition relative to control
[6] = read-out: Liver MAO-A inhibition relative to control

In the case of `C#CCN[C@@H]1CCc2ccc(OC(=O)N(CC)CO)cc21` [R-HCPAI, Ethyl-hydroxymethyl-carbamic acid 3-R-(prop-2-ynylamino)-indan-5-yl ester fumarate (2:1)], the “organ selectivity of MAO inhibition, in words” value (MAO) is reported as “brain-selective MAO inhibition”, the inhibition at 37.5 µmol/kg (MAO-A [1]; [4]) is reported as 8% and the inhibition at 37.5 µmol/kg (MAO-A [1]; [5]) is reported as -25%. For the same compound, the inhibition at 37.5 µmol/kg (MAO-A [1]; [6]) was 3%, the inhibition at 75 µmol/kg (MAO-A [1]; [4]) was 41% and the inhibition at 75 µmol/kg (MAO-A [1]; [5]) was 18%. The inhibition at 75 µmol/kg (MAO-A [1]; [6]) was 9%, the inhibition at 150 µmol/kg (MAO-A [1]; [4]) was 72% and the inhibition at 150 µmol/kg (MAO-A [1]; [5]) was 21%. The inhibition at 150 µmol/kg (MAO-A [1]; [6]) was 16%, the half-life ([2]; both) was 1.03 h and the Cmax ([2]; both, Cmax (M), mean, mean of patients, maintenance analysis Week 4) was 3.63e-06 M. The Cmax ([2]; both, Cmax (T), mean, mean of patients, termination analysis Week 9) was 3.3e-06 M, the concentration at 12 h ([2]; both, Cmin (M), mean of patients, maintenance analysis Week 4) was 2.32e-08 M and the concentration at 12 h ([2]; both, Cmin (T), mean of patients, termination analysis Week 9) was 1.37e-08 M. The AUC ([2]; Patient 1, maintenance analysis Week 4) was 1660 ng·h/mL, the AUC ([2]; Patient 2, maintenance analysis Week 4) was 600 ng·h/mL and the AUC ([2]; Patient 3, maintenance analysis Week 4) was 2290 ng·h/mL. It also gave an AUC ([2]; Patient 4, maintenance analysis Week 4) of 2150 ng·h/mL, an AUC ([2]; Patient 5, maintenance analysis Week 4) of 1700 ng·h/mL and an AUC ([2]; Patient 6, maintenance analysis Week 4) of 1890 ng·h/mL. It also gave an AUC ([2]; Patient 7, maintenance analysis Week 4) of 519 ng·h/mL, an AUC ([2]; Patient 8, maintenance analysis Week 4) of 1510 ng·h/mL and an AUC(0-t) ([2]; Patient 1, termination analysis Week 9) of 1300 ng·h/mL. The AUC(0-t) ([2]; Patient 2, termination analysis Week 9) was 3100 ng·h/mL, the AUC(0-t) ([2]; Patient 3, termination analysis Week 9) was 2520 ng·h/mL and the AUC(0-t) ([2]; Patient 4, termination analysis Week 9) was 1740 ng·h/mL. For the same compound, the AUC(0-t) ([2]; Patient 5, termination analysis Week 9) was 1650 ng·h/mL, the AUC(0-t) ([2]; Patient 6, termination analysis Week 9) was 2400 ng·h/mL and the AUC(0-t) ([2]; Patient 7, termination analysis Week 9) was 1040 ng·h/mL. It also gave an AUC(0-t) ([2]; Patient 8, termination analysis Week 9) of 1340 ng·h/mL, a Cmax ([2]; Cmax (M), Patient 1, maintenance analysis Week 4) of 3.6e-06 M and a Cmax ([2]; Cmax (M), Patient 2, maintenance analysis Week 4) of 1.5e-06 M. For the same compound, the Cmax ([2]; Cmax (M), Patient 3, maintenance analysis Week 4) was 3.7e-06 M, the Cmax ([2]; Cmax (M), Patient 4, maintenance analysis Week 4) was 7e-06 M and the Cmax ([2]; Cmax (M), Patient 5, maintenance analysis Week 4) was 4.7e-06 M. The Cmax ([2]; Cmax (M), Patient 6, maintenance analysis Week 4) was 4e-06 M, the Cmax ([2]; Cmax (M), Patient 7, maintenance analysis Week 4) was 1.2e-06 M and the Cmax ([2]; Cmax (M), Patient 8, maintenance analysis Week 4) was 3.3e-06 M. It also gave a Cmax ([2]; Cmax (T), Patient 1, termination analysis Week 9) of 3.2e-06 M, a Cmax ([2]; Cmax (T), Patient 2, termination analysis Week 9) of 3.9e-06 M and a Cmax ([2]; Cmax (T), Patient 3, termination analysis Week 9) of 3.9e-06 M. It also gave a Cmax ([2]; Cmax (T), Patient 4, termination analysis Week 9) of 3.9e-06 M, a Cmax ([2]; Cmax (T), Patient 5, termination analysis Week 9) of 3.7e-06 M and a Cmax ([2]; Cmax (T), Patient 6, termination analysis Week 9) of 3.2e-06 M. It also gave a Cmax ([2]; Cmax (T), Patient 7, termination analysis Week 9) of 2.1e-06 M, a Cmax ([2]; Cmax (T), Patient 8, termination analysis Week 9) of 2.6e-06 M and an IC50 (MAO-A [3]) of 414 µM.
